Our source for the IC50 values is ChEMBL document CHEMBL5727813, “Inhibitors of lysine gingipain” (2020).

SMILES strings stand for the structures. pIC50: −log10 of the molar value.

This assay is described as follows: Inhibition of Lysine Gingipain: The capacities of compounds of the present invention to inhibit the activity of lysine gingipain were measured in a fluorogenic assay similar to those described in Barret Biochemical Journal. 1980, 187(3), 909. The specific assay conditions were as follows. Buffer: pH=7.5, 100 mM Tris-HCl, 75 mM NaCl, 2.5 mM CaCl2, 10 mM cysteine, 1% DMSO after all additions. Protein: 0.1 nM Kgp, isolated from culture of Porphyromonas gingivalis, as described in Pike et al. J. Biol. Chem. 1994, 269(1), 406, and Potempa and Nguyen. Current Protocols in Protein Scienc. 2007, 21.20.1-21.20.27. Fluorogenic substrate: 10 uM Z-His-Glu-Lys-MCA. Time=90 minutes. Temperature=37° C. Each compound: 10 concentrations, starting at either 100 uM or 100 nM, with lower concentrations generated by serial 3-fold dilutions. By testing a range of concentrations for each compound, the concentration required to inhibit the activity of lysine gingipain by 50% (the “IC50”) was determined. Under the described assay conditions, signal-to-noise was excellent, and Z factor was greater than 0.6.

The molecule `NCCCC[C@H](NC(=O)C1CCCC1)C(=O)c1ccccn1` gave a pIC50 of less than 6.60.
